# Tests used:
# [1] = Anti-inflammatory activity: oedema provoked by carragenin in the rat; format: in vivo; settings: po, read-out: percentage inhibition of oedema; for inhibition in vivo at 64 mg/kg: 64 mg/kg orally; for inhibition in vivo at 128 mg/kg: 128 mg/kg orally; for inhibition in vivo at 256 mg/kg: 256 mg/kg orally; for inhibition in vivo at 512 mg/kg: 512 mg/kg orally
# Procedure: The method used was as follows.
# The anti-inflammatory activity was measured on oedema provoked by carragenin in the rat. Groups of six male rats each weighing 120 to 130 g received the compound under test orally in suspension in "tween 80", half the dose being given 2 hours before and the other half 1/2 hour before the subcutaneous plantar injection of 0.05 ml of a 1 % carragenin solution. The volume of the injected paw was measured by plethysmography at regular intervals. Table 1 below gives the percentage inhibition of the oedema with reference to untreated controls.
# [2] = Analgesic activity: Siegmund's test (phenylbenzoquinone painful reactions); format: in vivo; settings: Mus musculus, po, read-out: percentage inhibition of reactions; for inhibition in vivo at 32 mg/kg: 32 mg/kg orally; for inhibition in vivo at 64 mg/kg: 64 mg/kg orally; for inhibition in vivo at 128 mg/kg: 128 mg/kg orally; for inhibition in vivo at 256 mg/kg: 256 mg/kg orally; for inhibition in vivo at 512 mg/kg: 512 mg/kg orally
# Procedure: This activity was measured by Siegmund's test in mice and Randall and Selitto's test in the rat.
# Groups of six mice received the compound under test orally 1 hour before intraperitoneal injection of 0.2 ml of an 0.02% of solution of phenylbenzoquinone. The number of painful reactiors from the fifth to the tenth minute after the injection of phenylbenzoquinone was counted.
# [3] = Analgesic activity: Randall and Selitto's test (beer yeast paw, pain threshold); format: in vivo, rat
# Procedure: This activity was measured by Siegmund's test in mice and Randall and Selitto's test in the rat. Groups of ten male rats each weight 120 to 140 g received by subcutaneous plantar injection 0.05 ml of a 5% aqueous suspension of beer yeast. 2 Hours after this treatment they received the compound under test orally and 1 hour after administration of this compound the paw which had been injected and the contralateral paw were subjected to increasing pressure. The appearance of the pain threshold was noted.
# Escape test = format: in vivo; settings: Mus musculus, ip, 0.5 h, read-out: Percentage inhibition (number of attempts to escape); for change in vivo at 8 mg/kg: 8 mg/kg intraperitoneally; for change in vivo at 16 mg/kg: 16 mg/kg intraperitoneally; for change in vivo at 32 mg/kg: 32 mg/kg intraperitoneally; for change in vivo at 64 mg/kg: 64 mg/kg intraperitoneally; for change in vivo at 128 mg/kg: 128 mg/kg intraperitoneally; for change in vivo at 256 mg/kg: 256 mg/kg intraperitoneally
# Procedure: Groups of 8 mice were placed in sub groups of 4 in an enclosure from which they could escape by an inclined plane. The number of attempts to escape during 5 minutes were counted half an hour after intraperitoneal administration of the compound under test.
# [4] = Antagonism of convulsions produced by cardiazole; format: in vivo; settings: Mus musculus, ip, read-out: Percentage inhibition of tonic convulsions; for inhibition in vivo at 4 mg/kg: 4 mg/kg intraperitoneally; for inhibition in vivo at 8 mg/kg: 8 mg/kg intraperitoneally; for inhibition in vivo at 16 mg/kg: 16 mg/kg intraperitoneally; for inhibition in vivo at 32 mg/kg: 32 mg/kg intraperitoneally; for inhibition in vivo at 64 mg/kg: 64 mg/kg intraperitoneally; for inhibition in vivo at 128 mg/kg: 128 mg/kg intraperitoneally; for inhibition in vivo at 256 mg/kg: 256 mg/kg intraperitoneally
# Procedure: Groups of 6 mice received the compound under test 30 minutes before introperitoneal injection of 160 mg/kg of cardiazole. The action of the compound under test on the tonic convulsion phase was observed.
# [5] = Potentiation of stereotypes by amphetamine; format: in vivo, rat; settings: 5 mg/kg dexamphetamine sulphate
# Procedure: The compound under test was administered to groups of 5 rats intraperitoneally. Thirty minutes afterwards, 5 mg/kg of dexamphetamine sulphate was injected intraperitoneally. The duration of the phenomenon is counted at regular intervals from 0 to 4 and the counts are added up.
# Solubility in water = format: physicochemical; settings: monohydrochloride
# [6] = without yeast, 128 mg/kg orally
# [7] = without yeast, 256 mg/kg orally
Compound,inhibition in vivo at 64 mg/kg [1] [%],inhibition in vivo at 128 mg/kg [1] [%],inhibition in vivo at 256 mg/kg [1] [%],inhibition in vivo at 32 mg/kg [2] [%],inhibition in vivo at 64 mg/kg [2] [%],inhibition in vivo at 128 mg/kg [2] [%],change in vivo at 16 mg/kg (Escape test) [%],change in vivo at 32 mg/kg (Escape test) [%],change in vivo at 64 mg/kg (Escape test) [%],change in vivo at 128 mg/kg (Escape test) [%],inhibition in vivo at 16 mg/kg [4] [%],inhibition in vivo at 32 mg/kg [4] [%],inhibition in vivo at 64 mg/kg [4] [%],inhibition in vivo at 128 mg/kg [4] [%],inhibition in vivo at 256 mg/kg [2] [%],inhibition in vivo at 512 mg/kg [1] [%],change in vivo at 256 mg/kg (Escape test) [%],inhibition in vivo at 256 mg/kg [4] [%],inhibition in vivo at 512 mg/kg [2] [%],other results
"Cc1cccc(Nc2ncccc2C(=O)OCCN2CCCCC2)c1C [Example 2, β-Piperidino ethyl nixylate]",6,42,70,24,48,69,-21,-43,-80,-100,5,22,72,100,,,,,,"percentage increase of pain threshold ([3]; with yeast, 64 mg/kg orally): 5%; percentage increase of pain threshold ([3]; with yeast, 128 mg/kg orally): 30%; percentage increase of pain threshold ([3]; with yeast, 256 mg/kg orally): 87%; percentage increase of pain threshold ([3]; without yeast, 64 mg/kg orally): 0%; percentage increase of pain threshold [3, 6]: 52%; percentage increase of pain threshold [3, 7]: 33%; change in vivo at 8 mg/kg (Escape test): 6%; inhibition in vivo at 4 mg/kg [4]: 0%; inhibition in vivo at 8 mg/kg [4]: 16%"
"Cc1cccc(Nc2ncccc2C(=O)OCCN2CCN(C)CC2)c1C [Example 4, β-(N-methylpiperazino)ethyl nixylate]",0,50,62,8,33,69,-11,-37,-61,-95,0,0,58,91,84,,,,,"percentage increase of pain threshold ([3]; with yeast, 16 mg/kg orally): 0%; percentage increase of pain threshold ([3]; with yeast, 32 mg/kg orally): 31%; percentage increase of pain threshold ([3]; with yeast, 64 mg/kg orally): 27%; percentage increase of pain threshold ([3]; with yeast, 128 mg/kg orally): 61%; percentage increase of pain threshold ([3]; with yeast, 256 mg/kg orally): 16%; percentage increase of pain threshold ([3]; without yeast, 16 mg/kg orally): 8%; percentage increase of pain threshold ([3]; without yeast, 32 mg/kg orally): 30%; percentage increase of pain threshold ([3]; without yeast, 64 mg/kg orally): 46%; percentage increase of pain threshold [3, 6]: 38%; percentage increase of pain threshold [3, 7]: 10%; change in vivo at 8 mg/kg (Escape test): 2%"
"O=C(OCCN1CCOCC1)c1cccnc1Nc1ccccc1 [Example 5, β-Morpholino ethyl 2-anilino nicotinate]",,0,17,16,38,57,-12,-5,-23,-20,33,33,16,33,83,71,-78,100,,inhibition in vivo at 4 mg/kg [4]: 0%; inhibition in vivo at 8 mg/kg [4]: 16%; Sum of the counts (stereotypes) ([5]; 16 mg/kg intraperitoneally): 14; Sum of the counts (stereotypes) ([5]; 64 mg/kg intraperitoneally): 22; Sum of the counts (stereotypes) ([5]; 256 mg/kg intraperitoneally): 44
"Cc1cccc(C)c1Nc1ncccc1C(=O)OCCN1CCOCC1 [Example 6, β-Morpholino ethyl 2-(2,6-dimethylanilino) nicotinate]",0,13,36,,23,39,-13,-20,-35,-74,,,,,69,80,-100,,100,
"Cc1ccc(Nc2ncccc2C(=O)OCCN2CCOCC2)cc1Cl [Example 7, β-Morpholino ethyl 2-(3-chloro-4-methylanilino) nicotinate]",,2,29,14,33,55,-48,,-62,,,,0,9,55,53,-96,59,77,
"Cc1ccc(Cl)cc1Nc1ncccc1C(=O)OCCN1CCOCC1 [Example 8, β-Morpholino ethyl 2-(2-methyl-5-chloroanilino) nicotinate]",0,,36,,,,,-25,-52,-62,,0,17,33,18,,-83,67,74,inhibition in vivo at 512 mg/kg ([4]; 512 mg/kg intraperitoneally): 100%; Sum of the counts (stereotypes) ([5]; 32 mg/kg intraperitoneally): 89; Sum of the counts (stereotypes) ([5]; 64 mg/kg intraperitoneally): 87; Sum of the counts (stereotypes) ([5]; 128 mg/kg intraperitoneally): 161; Sum of the counts (stereotypes) ([5]; 256 mg/kg intraperitoneally): 195
"Cc1cccc(Cl)c1Nc1ncccc1C(=O)OCCN1CCOCC1 [Example 9, β-Morpholino ethyl 2-(2-chloro-6-methylanilino) nicotinate]",20,,39,8,8,37,-19,-22,-59,-100,,,0,100,66,,,,,inhibition in vivo at 16 mg/kg ([1]; 16 mg/kg orally): 7%; inhibition in vivo at 16 mg/kg ([2]; 16 mg/kg orally): 14%; solubility in water (Solubility in water): soluble in water
